From BindingDB's records for doi:10.1021/jm060996+ (Merck Research Laboratories, 2006)

target: Cannabinoid receptor 2 (Homo sapiens, UniProt P34972); test: Inhibition of [3H]CP-55940 binding to human recombinant CB2 receptor in CHO cells
Sequence (P34972 whole entry): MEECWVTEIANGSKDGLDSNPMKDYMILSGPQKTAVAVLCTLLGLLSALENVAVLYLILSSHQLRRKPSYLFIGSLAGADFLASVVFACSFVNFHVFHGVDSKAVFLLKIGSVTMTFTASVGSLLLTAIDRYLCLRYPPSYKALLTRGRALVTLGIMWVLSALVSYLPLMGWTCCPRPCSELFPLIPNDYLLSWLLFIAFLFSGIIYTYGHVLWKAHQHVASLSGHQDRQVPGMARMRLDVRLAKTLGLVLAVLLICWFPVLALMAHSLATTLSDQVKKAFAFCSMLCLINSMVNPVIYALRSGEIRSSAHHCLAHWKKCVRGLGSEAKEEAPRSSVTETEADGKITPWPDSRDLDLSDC

Row | SMILES | IC50
1 | C[C@H](NC(=O)C(C)(C)Oc1ccc(Cl)cc1)[C@@H](Cc1ccc(Cl)cc1)c1ccc(Cl)cc1 [(1S,2S)N-[2,3-bis(4-chlorophenyl)-1-methylpropyl]-2-(4-chlorophenyloxy)-2-methylpropanamide] | > 2 µM
2 | C[C@H](NC(=O)C(C)(C)Oc1cc(F)cc(F)c1)[C@@H](Cc1ccc(Cl)cc1)c1ccccc1 [N-((2S,3S)-4-(4-chlorophenyl)-3-phenylbutan-2-yl)-2-(3,5-difluorophenoxy)-2-methylpropanamide] | 0.2 µM
3 | C[C@H](NC(=O)C(C)(C)Oc1ccc(C(F)(F)F)cn1)[C@@H](Cc1ccc(Cl)cc1)c1ccccc1 [N-((2S,3S)-4-(4-chlorophenyl)-3-phenylbutan-2-yl)-2-methyl-2-(5-(trifluoromethyl)pyridin-2-yloxy)propanamide] | 0.14 µM
4 | C[C@H](NC(=O)C(C)(C)Oc1ccccc1)[C@@H](Cc1ccc(Cl)cc1)c1ccccc1 [N-((2S,3S)-4-(4-chlorophenyl)-3-phenylbutan-2-yl)-2-methyl-2-phenoxypropanamide] | 0.45 µM
5 | CC(NC(=O)C(C)(C)Oc1ccc(Cl)cc1)C(Cc1ccc(Cl)cc1)c1ccc(Cl)cc1 (stereo not given) [N-[2,3-bis(4-chlorophenyl)-1-methylpropyl]-2-(4-chlorophenyloxy)-2-methylpropanamide] | 1.1 µM
6 | CC(NC(=O)C(C)(C)Oc1ccc(Cl)cc1)C(Cc1ccc(Cl)cc1)c1ccccc1 (stereo not given) [N-[3-(4-chlorophenyl)-1-methyl-2-phenylpropyl]-2-(4-chlorophenyloxy)-2-methylpropanamide] | 0.61 µM
7 | C[C@H](NC(=O)C(C)(C)Oc1ccccn1)[C@@H](Cc1ccc(Cl)cc1)c1ccccc1 [N-[(1S,2S)-3-(4-chlorophenyl)-1-methyl-2-phenyl-propyl]-2-(2-pyridyloxy)-2-methylpropanamide] | 0.088 µM
8 | C[C@H](NC(=O)C(C)(C)Oc1cccc(Cl)c1)[C@@H](Cc1ccc(Cl)cc1)c1ccccc1 [N-[(1S,2S)-3-(4-chlorophenyl)-1-methyl-2-phenylpropyl]-2-(3-chlorophenyloxy)-2-methylpropanamide] | 0.19 µM
9 | C[C@H](NC(=O)C(C)(C)Oc1cccc(F)c1)[C@@H](Cc1ccc(Cl)cc1)c1ccccc1 [N-[(1S,2S)-3-(4-chlorophenyl)-1-methyl-2-phenylpropyl]-2-(3-fluorophenyloxy)-2-methylpropanamide] | 0.29 µM
10 | C[C@H](NC(=O)C(C)(C)Oc1ccc(Cl)cn1)[C@@H](Cc1ccc(Cl)cc1)c1ccccc1 [N-[(1S,2S)-3-(4-chlorophenyl)-1-methyl-2-phenylpropyl]-2-[(5-chloro-2-pyridin-2-yl)oxy]-2-methylpropanamide] | 0.1 µM
